Test results as given in article PMC9913752, “Proof-of-Concept Study of an Alpha-Fetoprotein-Derived Peptide for the Management of Canine Mammary Cancer” (Animals : an Open Access Journal from MDPI, 2023).
Where a SMILES comes first, the peptide text is derived from it. [ ]: non-standard residue; d: D form. Hyp = O=C(O)[C@@H]1C[C@@H](O)CN1

Assay: 8-day repeat-dose study, tolerability (blood chemistry, hematology, adverse events) in tumor-bearing dogs
Format: in vivo, dog
Conditions: for ALP / ALT / AST / Albumin / BUN / Bicarbonate / Bilirubin Conj. / Calcium / Chloride / Cholesterol / Creatine Kinase / GGT / Globulin / Glucose / HCT / HGB / MCH / MCV / Phosphorous / Platelets / Potassium / RBC / Sodium / Total Bilirubin / Total Protein / WBC: Post: 30 min after last injection on day 8, 10 mg s.c. once daily for 8 days
From the text: Previous studies utilizing repeat dosing in mice and rats established safe starting doses for studies using dogs. Female dogs with one or more spontaneously occurring mammary gland tumors greater than approximately 2 cm in maximum diameter, presenting to the Cancer Institute at the Schwarzman Animal Medical Center in New York City, were screened for inclusion in the study. […] All dogs underwent complete clinical staging, consisting of a complete blood count with cell differential, clinical chemistry, and urinalysis. Dogs were administered AFPep 10 mg s.c. once daily for 8 consecutive days. Tumors were biopsied prior to the administration of AFPep and were surgically removed on day 8 after the last injection of AFPep. Blood levels of AFPep were measured before and 30 minutes following its administration on the first day and eighth day of treatment with AFPep. Histopathology was obtained on all mammary gland tumors. Tolerability was assessed using the Veterinary Cooperative Oncology Group Common Terminology Criteria for Adverse Events. Blood chemistry and hematology analyses were performed at IDEXX Laboratories Inc. (Westbrook, ME, USA), using the Sysmex XT and Beckman AU 5800 systems. This study was approved by the Schwarzman Animal Medical Center IACUC and informed consent was obtained in writing from all owners.

CC(C)[C@@H]1NC(=O)[C@@H]2C[C@@H](O)CN2C(=O)[C@H]([C@@H](C)O)NC(=O)[C@H](CCCCN)NC(=O)[C@H](CCC(=O)O)NC(=O)[C@H](CC(N)=O)NC(=O)CNC(=O)[C@@H]2C[C@@H](O)CN2C(=O)[C@H](CC(N)=O)NC1=O [AFPep] (cyclo(EKT[Hyp]VN[Hyp]GN))
AFPep-related adverse events (VCOG-CTCAE) (10 mg s.c. once a day for 8 days, 6 dogs with mammary cancer): grade-1 injection site reactions in three out of six dogs
complete blood counts with cell differential, clinical chemistry, and urinalysis (30 minutes before first exposure vs 30 minutes after the 8-day administration, 10 mg s.c. once daily, 6 dogs): unchanged
ALP (Dog 1): 261 U/L
ALT (Dog 1): 35 U/L
AST (Dog 1): 14 U/L
Albumin (Dog 1): 3 g/dL
BUN (Dog 1): 27 mg/dL
Bicarbonate (Dog 1): 21 mmol/L
Bilirubin Conj. (Dog 1): 0.1 mg/dL
Calcium (Dog 1): 10 mg/dL
Chloride (Dog 1): 111 mmol/L
Cholesterol (Dog 1): 277 mg/dL
Creatine Kinase (Dog 1): 120 U/L
GGT (Dog 1): 4 U/L
Globulin (Dog 1): 3 g/dL
Glucose (Dog 1): 107 mg/dL
HCT (Dog 1): 39%
HGB (Dog 1): 13 g/dL
MCH (Dog 1): 24 pg
MCV (Dog 1): 68 fL
Phosphorous (Dog 1): 4 mg/dL
Platelets (Dog 1): 438 10^3/µL
Potassium (Dog 1): 4 mmol/L
RBC (Dog 1): 6 10^6/µL
Sodium (Dog 1): 145 mmol/L
Total Bilirubin (Dog 1): 0.1 mg/dL
Total Protein (Dog 1): 6 g/dL
WBC (Dog 1): 18 10^3/µL
ALP (Dog 2): 115 U/L
ALT (Dog 2): 14 U/L
AST (Dog 2): 20 U/L
Albumin (Dog 2): 4 g/dL
BUN (Dog 2): 14 mg/dL
Bicarbonate (Dog 2): 23 mmol/L
Bilirubin Conj. (Dog 2): 0.1 mg/dL
Calcium (Dog 2): 11 mg/dL
Chloride (Dog 2): 108 mmol/L
Creatine Kinase (Dog 2): 225 U/L
GGT (Dog 2): 6 U/L
Globulin (Dog 2): 4 g/dL
Glucose (Dog 2): 178 mg/dL
HCT (Dog 2): 46%
HGB (Dog 2): 17 g/dL
MCH (Dog 2): 23 pg
MCV (Dog 2): 65 fL
Phosphorous (Dog 2): 3 mg/dL
Platelets (Dog 2): 700 10^3/µL
Potassium (Dog 2): 5 mmol/L
RBC (Dog 2): 7 10^6/µL
Sodium (Dog 2): 146 mmol/L
Total Bilirubin (Dog 2): 0.1 mg/dL
Total Protein (Dog 2): 8 g/dL
WBC (Dog 2): 7 10^3/µL
ALP (Dog 3): 178 U/L
ALT (Dog 3): 39 U/L
AST (Dog 3): 15 U/L
Albumin (Dog 3): 4 g/dL
BUN (Dog 3): 14 mg/dL
Bicarbonate (Dog 3): 23 mmol/L
Bilirubin Conj. (Dog 3): 0.1 mg/dL
Calcium (Dog 3): 9 mg/dL
Chloride (Dog 3): 108 mmol/L
Cholesterol (Dog 3): 273 mg/dL
Creatine Kinase (Dog 3): 115 U/L
GGT (Dog 3): 4 U/L
Globulin (Dog 3): 3 g/dL
Glucose (Dog 3): 107 mg/dL
HCT (Dog 3): 46%
HGB (Dog 3): 17 g/dL
MCH (Dog 3): 23 pg
MCV (Dog 3): 64 fL
Phosphorous (Dog 3): 4 mg/dL
Platelets (Dog 3): 558 10^3/µL
Potassium (Dog 3): 5 mmol/L
RBC (Dog 3): 7 10^6/µL
Sodium (Dog 3): 145 mmol/L
Total Bilirubin (Dog 3): 0.1 mg/dL
Total Protein (Dog 3): 7 g/dL
